The text below walks through data of patent US20090270413A1, “DI-T-BUTYLPHENYL PIPERAZINES AS CALCIUM CHANNEL BLOCKERS” (priority 2008, published 2009).

Each structure is given as a SMILES string.

Assay [1] addresses T1, Cav3.1 (T-type channel alpha-1G) (Homo sapiens, UniProt O43497).
T1 construct: expressed in transfected cells; host or cells: HEK 293
Nature of the assay: T-type calcium channel voltage-clamp assay, Cav3.1. Type of assay: cell-based. Conditions: read-out: Cav 3.1 IC50. The method, then: (§1) The T-type calcium channel blocking activity of the compounds of this invention may be readily determined using the methodology well known in the art described by Xia, et al., Assay and Drug Development Tech., 1 (5), 637-645 (2003).
(§2) In a typical experiment ion channel function from HEK 293 cells expressing the T-type channel alpha-1G, H, or I (CaV 3.1, 3.2, 3.3) is recorded to determine the activity of compounds in blocking the calcium current mediated by the T-type channel alpha-1G, H, or I (CaV 3.1, 3.2, 3.3). In this T-type calcium (Ca^2+) antagonist voltage-clamp assay calcium currents are elicited from the resting state of the human alpha-1G, H, or I (CaV 3.1, 3.2, 3.3) calcium channel as follows. Sequence information for T-type (Low-voltage activated) calcium channels are fully disclosed in e.g., U.S. Pat. No. 5,618,720, U.S. Pat. No. 5,686,241, U.S. Pat. No. 5,710,250,U.S. Pat. No. 5,726,035, U.S. Pat. No. 5,792,846, U.S. Pat. No. 5,846,757, U.S. Pat. No. 5,851,824, U.S. Pat. No. 5,874,236, U.S. Pat. No. 5,876,958, U.S. Pat. No. 6,013,474, U.S. Pat. No. 6,057,114, U.S. Pat. No. 6,096,514, WO 99/28342, and J. Neuroscience, 19 (6):1912-1921 (1999). Cells expressing the t-type channels were grown in H3D5 growth media which is comprised DMEM, 6% bovine calf serum (HYCLONE), 30 micromolar Verapamil, 200 microgram/ml Hygromycin B, 1× Penicillin/Streptomycin. Glass pipettes are pulled to a tip diameter of 1-2 micrometer on a pipette puller. The pipettes are filled with the intracellular solution and a chloridized silver wire is inserted along its length, which is then connected to the headstage of the voltage-clamp amplifier. Trypsinization buffer was 0.05% Trypsin, 0.53 mM EDTA. The extracellular recording solution consists of (mM): 130 mM NaCl, 4 mM KCl, 1 mM MgCl2, 2 mM CaCl2, 10 mM HEPES, 30 Glucose, pH 7.4. The internal solution consists of (mM): 135 mM CsMeSO4, 1 MgCl2, 10 CsCl, 5 EGTA, 10 HEPES, pH 7.4, or 135 mM CsCl, 2 MgCl2, 3 MgATP, 2 Na2ATP, 1 Na2GTP, 5 EGTA, 10 HEPES, pH 7.4. Upon insertion of the pipette tip into the bath, the series resistance is noted (acceptable range is between 1-4 megaohm). The junction potential between the pipette and bath solutions is zeroed on the amplifier. The cell is then patched, the patch broken, and, after compensation for series resistance (>=80%), the voltage protocol is applied while recording the whole cell Ca2+ current response. Voltage protocols: (1) −80 mV holding potential every 20 seconds pulse to −20 mV for 40 msec duration; the effectiveness of the drug in inhibiting the current mediated by the channel is measured directly from measuring the reduction in peak current amplitude initiated by the voltage shift from −80 mV to −20 mV; (2). −100 mV holding potential every 15 seconds pulse to −20 mV for 40 msec duration; the effectiveness of the drug in inhibiting the current mediated by the channel is measured directly from measuring the reduction in peak current amplitude initiated by the shift in potential from −100 mV to […]. The difference in block at the two holding potentials was used to determine the effect of drug at differing levels of inactivation induced by the level of resting state potential of the cells. After obtaining control baseline calcium currents, extracellular solutions containing increasing concentrations of a test compound are washed on. Once steady state inhibition at a given compound concentration is reached, a higher concentration of compound is applied. % inhibition of the peak inward control Ca2+ current during the depolarizing step to −20 mV is plotted as a function of compound concentration.

In assay [2] the target is T2, Cav3.2 (T-type channel alpha-1H) (Homo sapiens, UniProt O95180).
T2 construct: expressed in transfected cells; host or cells: HEK 293
T2 sequence (O95180 whole entry): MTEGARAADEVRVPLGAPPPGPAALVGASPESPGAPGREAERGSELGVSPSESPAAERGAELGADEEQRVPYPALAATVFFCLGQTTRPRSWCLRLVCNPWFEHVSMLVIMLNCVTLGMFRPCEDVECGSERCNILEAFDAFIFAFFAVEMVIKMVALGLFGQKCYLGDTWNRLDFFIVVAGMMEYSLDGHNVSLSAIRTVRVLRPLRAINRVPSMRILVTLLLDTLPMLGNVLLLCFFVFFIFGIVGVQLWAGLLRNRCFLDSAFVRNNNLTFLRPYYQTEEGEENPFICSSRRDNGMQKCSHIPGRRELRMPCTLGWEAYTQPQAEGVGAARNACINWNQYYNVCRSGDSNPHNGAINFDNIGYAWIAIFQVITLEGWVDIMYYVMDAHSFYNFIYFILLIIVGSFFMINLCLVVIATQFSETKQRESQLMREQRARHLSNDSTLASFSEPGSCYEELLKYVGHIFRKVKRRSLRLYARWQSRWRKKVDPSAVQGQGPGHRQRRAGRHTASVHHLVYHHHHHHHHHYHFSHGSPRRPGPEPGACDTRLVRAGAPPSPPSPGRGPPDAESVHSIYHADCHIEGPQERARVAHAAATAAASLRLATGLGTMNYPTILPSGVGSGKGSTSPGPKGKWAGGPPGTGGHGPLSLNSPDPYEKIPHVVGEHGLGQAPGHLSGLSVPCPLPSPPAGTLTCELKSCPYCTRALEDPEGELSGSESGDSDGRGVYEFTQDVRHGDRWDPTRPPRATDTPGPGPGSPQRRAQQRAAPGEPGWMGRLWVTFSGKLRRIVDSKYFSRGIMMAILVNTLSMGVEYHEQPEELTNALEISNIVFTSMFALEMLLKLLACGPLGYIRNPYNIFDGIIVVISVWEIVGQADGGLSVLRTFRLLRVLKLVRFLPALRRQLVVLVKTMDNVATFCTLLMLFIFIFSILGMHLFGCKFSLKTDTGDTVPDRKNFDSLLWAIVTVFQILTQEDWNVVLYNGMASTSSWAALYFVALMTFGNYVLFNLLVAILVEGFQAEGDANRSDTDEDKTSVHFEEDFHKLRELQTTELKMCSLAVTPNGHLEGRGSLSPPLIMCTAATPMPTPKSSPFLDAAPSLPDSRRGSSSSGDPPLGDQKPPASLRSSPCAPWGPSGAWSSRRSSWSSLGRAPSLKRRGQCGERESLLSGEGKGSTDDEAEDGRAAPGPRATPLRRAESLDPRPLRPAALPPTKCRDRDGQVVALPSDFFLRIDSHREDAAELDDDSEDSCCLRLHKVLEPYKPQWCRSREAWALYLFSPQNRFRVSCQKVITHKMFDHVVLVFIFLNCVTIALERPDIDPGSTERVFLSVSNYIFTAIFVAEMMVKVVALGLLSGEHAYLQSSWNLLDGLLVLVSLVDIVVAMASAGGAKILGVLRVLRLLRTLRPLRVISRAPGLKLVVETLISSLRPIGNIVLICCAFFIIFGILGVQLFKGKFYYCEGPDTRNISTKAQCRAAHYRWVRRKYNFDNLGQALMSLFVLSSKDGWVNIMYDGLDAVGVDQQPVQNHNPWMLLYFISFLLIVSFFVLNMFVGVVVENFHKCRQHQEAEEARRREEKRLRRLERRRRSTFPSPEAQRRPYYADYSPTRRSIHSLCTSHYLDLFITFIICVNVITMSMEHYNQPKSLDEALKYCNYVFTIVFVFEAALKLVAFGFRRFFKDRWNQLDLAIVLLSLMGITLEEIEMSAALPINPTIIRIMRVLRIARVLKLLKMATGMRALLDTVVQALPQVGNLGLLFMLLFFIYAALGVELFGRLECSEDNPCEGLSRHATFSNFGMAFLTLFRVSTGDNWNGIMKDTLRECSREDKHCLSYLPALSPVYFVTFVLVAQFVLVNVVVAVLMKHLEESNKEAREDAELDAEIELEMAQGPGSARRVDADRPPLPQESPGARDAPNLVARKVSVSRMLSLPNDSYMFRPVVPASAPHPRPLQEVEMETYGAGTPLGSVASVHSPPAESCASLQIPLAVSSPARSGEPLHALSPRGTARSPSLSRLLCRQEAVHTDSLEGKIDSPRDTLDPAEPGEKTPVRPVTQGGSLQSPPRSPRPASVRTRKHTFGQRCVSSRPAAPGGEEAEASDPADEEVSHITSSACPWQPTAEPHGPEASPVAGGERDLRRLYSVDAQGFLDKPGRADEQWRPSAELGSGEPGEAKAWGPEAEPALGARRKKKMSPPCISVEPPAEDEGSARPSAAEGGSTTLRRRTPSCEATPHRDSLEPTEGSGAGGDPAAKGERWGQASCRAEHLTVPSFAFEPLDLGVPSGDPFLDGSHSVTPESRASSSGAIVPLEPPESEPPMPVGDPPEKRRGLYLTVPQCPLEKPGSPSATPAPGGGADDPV
The assay can be described thus: T-type calcium channel voltage-clamp assay, Cav3.2. The class given is cell-based. Conditions: read-out: Cav 3.2 IC50. As to the method:
as §1, §2

Assay [3] addresses T3, Human Cav2.2 channels (Homo sapiens, UniProt Q00975).
T3 construct: expressed in transfected cells
The assay can be described thus: Block of Cav2.2 (N-type) channels expressed in HEK293 cells. Type of assay: cell-based. To be noted: for inhibition at 10 µM / inhibition at 30 µM: HEK293; for inhibition at 10 µM: read-out: Cav 2.2 % Inh @ 10 μM; for inhibition at 30 µM: read-out: Cav 2.2 % Inh @ 30 μM; for IC50: read-out: Cav 2.2 IC50. In short, it runs like this: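 HEK293 cells co-expressing Cav2.2 with α2δ, β subunits and Kir2.3. Fluo-4 calcium influx: 30 min compound incubation at 25 °C in 4 mM (resting) or 12, 25 or 30 mM K+ (open/inactivated), then 70 mM K+ depolarisation. IonWorks HT barium-current patch clamp: 5 min compound, 2 Hz train of twenty 25 ms steps to +20 mV, first versus 20th pulse block.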

The subject of assay [4] is T-type over L-type channels. To be noted: cited from earlier work.

T1 sequence (O43497 whole entry): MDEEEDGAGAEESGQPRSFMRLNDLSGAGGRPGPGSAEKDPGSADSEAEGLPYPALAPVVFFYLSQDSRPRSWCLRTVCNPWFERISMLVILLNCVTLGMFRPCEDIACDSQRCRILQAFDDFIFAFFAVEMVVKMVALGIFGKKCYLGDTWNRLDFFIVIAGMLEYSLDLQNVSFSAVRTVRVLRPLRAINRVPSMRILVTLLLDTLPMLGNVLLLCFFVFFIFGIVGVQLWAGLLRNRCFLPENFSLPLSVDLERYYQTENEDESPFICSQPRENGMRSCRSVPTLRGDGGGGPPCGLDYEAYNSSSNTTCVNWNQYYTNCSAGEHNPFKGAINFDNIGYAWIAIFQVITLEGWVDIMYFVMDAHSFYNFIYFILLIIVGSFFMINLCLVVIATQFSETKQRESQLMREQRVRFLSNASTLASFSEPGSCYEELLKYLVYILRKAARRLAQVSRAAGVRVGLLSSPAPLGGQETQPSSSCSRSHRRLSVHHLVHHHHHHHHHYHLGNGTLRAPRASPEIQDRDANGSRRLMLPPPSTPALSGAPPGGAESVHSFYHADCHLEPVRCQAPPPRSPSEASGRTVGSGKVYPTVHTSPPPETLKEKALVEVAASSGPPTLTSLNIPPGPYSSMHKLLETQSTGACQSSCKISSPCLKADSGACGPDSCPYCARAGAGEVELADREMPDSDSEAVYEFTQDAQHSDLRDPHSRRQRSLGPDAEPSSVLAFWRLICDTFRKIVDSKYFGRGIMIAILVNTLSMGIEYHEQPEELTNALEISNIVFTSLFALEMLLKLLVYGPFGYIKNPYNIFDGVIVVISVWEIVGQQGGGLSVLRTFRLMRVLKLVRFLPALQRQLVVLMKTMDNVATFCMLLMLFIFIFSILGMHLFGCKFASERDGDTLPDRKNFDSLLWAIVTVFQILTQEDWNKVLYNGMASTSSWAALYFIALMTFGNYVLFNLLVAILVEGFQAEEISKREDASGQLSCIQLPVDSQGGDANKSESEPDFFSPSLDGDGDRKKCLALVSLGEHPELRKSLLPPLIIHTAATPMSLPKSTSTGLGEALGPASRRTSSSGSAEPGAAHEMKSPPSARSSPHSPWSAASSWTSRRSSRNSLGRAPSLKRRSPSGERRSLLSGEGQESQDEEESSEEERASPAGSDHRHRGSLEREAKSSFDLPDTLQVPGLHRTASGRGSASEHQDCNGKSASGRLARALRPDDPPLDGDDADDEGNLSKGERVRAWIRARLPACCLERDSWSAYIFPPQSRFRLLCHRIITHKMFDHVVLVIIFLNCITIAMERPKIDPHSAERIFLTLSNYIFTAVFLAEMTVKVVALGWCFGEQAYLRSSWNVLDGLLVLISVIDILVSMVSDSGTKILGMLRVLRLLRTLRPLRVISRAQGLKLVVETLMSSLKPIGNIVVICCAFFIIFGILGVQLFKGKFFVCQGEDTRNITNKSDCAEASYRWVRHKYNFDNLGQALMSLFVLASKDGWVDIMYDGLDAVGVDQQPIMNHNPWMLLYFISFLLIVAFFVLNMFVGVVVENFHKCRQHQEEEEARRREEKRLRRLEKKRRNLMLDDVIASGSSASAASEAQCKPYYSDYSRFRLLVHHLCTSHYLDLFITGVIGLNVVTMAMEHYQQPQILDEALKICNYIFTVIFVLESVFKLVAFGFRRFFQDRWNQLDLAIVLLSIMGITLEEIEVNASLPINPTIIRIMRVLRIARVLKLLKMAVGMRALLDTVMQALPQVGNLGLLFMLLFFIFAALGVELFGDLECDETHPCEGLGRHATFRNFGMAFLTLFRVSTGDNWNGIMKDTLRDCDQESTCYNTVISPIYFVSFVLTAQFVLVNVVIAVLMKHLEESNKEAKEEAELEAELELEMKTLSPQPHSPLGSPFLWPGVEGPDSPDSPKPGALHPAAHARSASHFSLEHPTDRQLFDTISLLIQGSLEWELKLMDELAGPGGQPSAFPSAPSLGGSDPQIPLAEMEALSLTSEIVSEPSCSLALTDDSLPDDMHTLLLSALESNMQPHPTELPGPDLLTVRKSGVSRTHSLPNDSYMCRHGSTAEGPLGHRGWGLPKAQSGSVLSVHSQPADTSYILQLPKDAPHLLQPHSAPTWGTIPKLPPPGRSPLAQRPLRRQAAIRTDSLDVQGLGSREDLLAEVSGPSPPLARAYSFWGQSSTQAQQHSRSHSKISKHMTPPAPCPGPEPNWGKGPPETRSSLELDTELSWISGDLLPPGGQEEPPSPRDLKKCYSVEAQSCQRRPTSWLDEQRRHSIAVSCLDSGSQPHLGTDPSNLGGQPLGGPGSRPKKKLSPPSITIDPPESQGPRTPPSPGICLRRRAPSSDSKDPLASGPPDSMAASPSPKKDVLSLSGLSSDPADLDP

For the compound `Cc1nc(C(=O)N2CCN(c3cc(C(C)(C)C)cc(C(C)(C)C)c3)CC2)c(C(F)(F)F)o1` [Compound 37, (4-(3,5-di-tert-butylphenyl)piperazin-1-yl)(2-methyl-5-(trifluoromethyl)oxazol-4-yl)methanone], in assay [1], the concentration for half-maximal inhibition (IC50) (as a rule, the concentration at which inhibition is half-maximal) was determined as 2040 nM. Besides, in assay [2], the IC50 is 2290 nM. Further, in assay [3], the inhibition at 10 µM worked out at 94%, the inhibition at 30 µM was 101% and the IC50 is 550 nM.
For `CCOc1ncccc1C(=O)N1CCN(c2cc(C(C)(C)C)cc(C(C)(C)C)c2)CC1` [Compound 38, (4-(3,5-di-tert-butylphenyl)piperazin-1-yl)(2-ethoxypyridin-3-yl)methanone] the same measures were 1490 nM, 2230 nM, 107%, 98% and 850 nM.
For the compound `Cc1nc(C(F)(F)F)c(C(=O)N2CCN(c3cc(C(C)(C)C)cc(C(C)(C)C)c3)CC2)s1` [Compound 41, (4-(3,5-di-tert-butylphenyl)piperazin-1-yl)(2-methyl-4-(trifluoromethyl)thiazol-5-yl)methanone], the IC50 in assay [1] came to 1510 nM; in assay [2], 1410 nM; in assay [3], 830 nM. Also, the inhibition at 10 µM in assay [3] amounted to 102%. Further, the inhibition at 30 µM in assay [3] amounted to 107%.
On the same counts, the results for `CCSc1ncccc1C(=O)N1CCN(c2cc(C(C)(C)C)cc(C(C)(C)C)c2)CC1` [Compound 45, (4-(3,5-di-tert-butylphenyl)piperazin-1-yl)(2-(ethylthio)pyridin-3-yl)methanone] are 960 nM, 1800 nM, 1080 nM, 97% and 101%.
For the compound `CC(C)(C)c1cc(N2CCN(C(=O)c3ccc(OCC(F)(F)F)nc3)CC2)cc(C(C)(C)C)c1` [Compound 47, (4-(3,5-di-tert-butylphenyol)piperazin-1-yl)(6-(2,2,2-trifluoroethoxy)pyridin-3-yl)methanone], in assay [1], the concentration for half-maximal inhibition (IC50) came to 490 nM. The half-inhibitory concentration (IC50) in assay [2] stood at 800 nM. For the same compound, in assay [3], the inhibition at 10 µM was found to be 101%, the inhibition at 30 µM amounted to 104% and the IC50 stood at 1480 nM.
On the same counts, the results for `CC(C)(C)c1cc(N2CCN(C(=O)c3ccccc3)CC2)cc(C(C)(C)C)c1` [Compound 48, (4-(3,5-di-tert-butylphenyl)piperazin-1-yl)(phenyl)methanone] are 370 nM, 610 nM, 103%, 103% and 1480 nM.
On to `Cc1cccc(C(=O)N2CCN(c3cc(C(C)(C)C)cc(C(C)(C)C)c3)CC2)n1` [Compound 49, (4-(3,5-di-tert-butylphenyl)piperazin-1-yl)(6-methylpyridin-2-yl)methanone], for which the half-inhibitory concentration (IC50) in assay [1] came to 1520 nM. Moreover, in assay [2], the IC50 is 1880 nM. For the same compound, in assay [3], the inhibition at 10 µM came out at 102%, the inhibition at 30 µM was 105% and the IC50 worked out at 1660 nM.
Consider `COCC(=O)O[C@]1(CCN(C)CCCc2nc3ccccc3[nH]2)CCc2cc(F)ccc2[C@@H]1C(C)C` [Mibefradil], for which the “selective for T-type over L-type channels” value in assay [4] is 10-30 fold.
